Measured values published in patent US20120322153A1, “REPROGRAMMING A CELL BY ACTIVATION OF THE ENDOGENOUS TRANSCRIPTION FACTOR NETWORK” (NUPOTENTIAL, INC., priority 2009, published 2012).
Where two headings read alike, the source gives them in different places.

Key:
HDAC = conditions: order of magnitude of affinity for HDAC; cited from earlier work
[1] = system: Human adipose tissue derived adult stem cells; test: ES cell-like colony formation of hADS cells pre-treated with HDAC inhibitor, then OSKM lentivirus; format: cell-based
Method: Human adipose tissue derived adult stem cells were maintained at 37° C. in 95% humidity and 5% CO2 in Dulbecco's modified eagle medium (DMEM, Cell Application) containing 10% fetal bovine serum, 0.5% penicillin and streptomycin. Cells were grown, trypsinized and counted, then diluted in the above standard growth medium to achieve appropriate plating density (1×10^5 cells/well in 6 well plate, Corning) prior to HDAC inhibitor treatment.
Pre-treatment. […] The cell culture medium was changed every other day with new treatment.
Lentivirus infection. Lentivirus that over-expresses mouse Oct-4, Sox2, c-Myc, and Klf4 was purchased from Millipore, (Billerica, Mass.). One day before lentivirus infection, human adipose tissue-derived cells with or without HDAC inhibitor pretreatment were trypsinized and plated at a density of 1×10^5 cells/well in a 6 well plate (Corning) using standard growth medium described above. The following day, the medium was replaced with 1 ml of fresh medium containing 0.6 ug/ml of polybrene (Sigma-Aldrich, St. Louis, Mo.), and thawed lentivirus (MOI 75) was added directly to the wells following the manufacturer's instruction. Cells were maintained at 37° C. in 95% humidity and 5% CO2 incubator overnight. On the next day, lentiviral infection was repeated after cells were washed 3 times with 1×PBS. Lentivirus infected cells were maintained in the standard growth medium for 4˜5 days and trypsinized, and plated on irradiated MEF feeder layers (ATCC, Manassas, Va.) with mTeSR medium (Stem Cell Technology).

[2] = system: Human adipose tissue derived adult stem cells; test: Immunohistochemistry for Sox-2 and Oct4 in ES cell-like colonies from hADS cells; format: cell-based; conditions: pre-treatment with TSA
Method: Cells were fixed with fixative (Ethanol:acetic acid:H2O=7:2:1) for 10 minutes. After rinse 3 times with 10% FBS in 1×PBS for 5 min each and cells were incubated I hrs with primary antibodies for Oct4 (1:200 dilution, Abeam), or Sox2 (1:200 dilution, Abeam) in 10% FBS containing 0.2% saponin (Sigma) and following alexaFluor-conjugated secondary antibody (1:200 dilution, Invitrogen).

mouse embryos = conditions: mice, when properly dosed; cited from earlier work
Human fibroblasts = conditions: Retroviral infection, cited from earlier work
BJFs (ATCC) = test: HDAC and DNMT1 gene expression in BJFs treated with VPA; format: cell-based
Method: FIG. 4C is a bar graph reporting HDAC and DNMT1 gene expression in BJFs (ATCC) treated with […] Valproic acid (VPA) for 7 days.
Expression levels for shRNA-targeted genes and pluripotency transcription factor were quantified by real-time RT-PCR. Briefly, total RNA was prepared from cultures using Trizol Reagent (Life Technology) and the RNeasy Mini RNA isolation kit (Qiagen) with DNase I digestion according to manufacturer's protocol. Total RNA (1 μg) from each sample was subjected to oligo(dT)-primed reverse transcription (Invitrogen) to cDNA. Real-time PCR reactions were performed with PCR master mix on a 7300 real-time PCR system (Applied Biosystems). For each sample, 1 μl of diluted cDNA (1:10) was added as template in the PCR reactions. Expression levels were compared to those in untreated and non-targeting shRNA control cells relative to cyclophillin.

[3] = used as antiepileptic drug during pregnancy; a few percent of born children; cited from earlier work
[4] = system: Mouse embryonic fibroblasts; conditions: Recombinant protein, cited from earlier work
[5] = 5 days pre-treatment, 9 days after OSKM viral infection
[6] = 5 days pre-treatment, 11 days after OSKM viral infection

| Compound | Affinity Range (HDAC) | other results |
| --- | --- | --- |
| CN(C)c1ccc(C(=O)NCc2ccc(/C=C/C(=O)NO)cc2)cc1 [SK-7041] | nM |  |
| O=C(/C=C/c1ccc(CN(CCO)CCc2c[nH]c3ccccc23)cc1)NO [NVP-LAQ824] | nM |  |
| CC(=O)N[C@@H](CSC(=S)NCCCC[S+](C)[O-])C(=O)O (some centres unmarked) [SFN-N-acetylcysteine (SFN-NAC), SFN-N-acetylcysteine] | uM |  |
| O=C(CCCCCN1C(=O)c2cccc3cccc(c23)C1=O)NO [Scriptaid] |  | ES cell-like colony formation [1, 5]: ES cell-like colony formation was observed; ES cell-like colony formation [1, 6]: multiple colonies displaying morphologies consistent with embryonic stem cells or reprogrammed cells were observed |
| C=CCSSCC=C [Diallyl disulfide (DADS), Diallyl disulfide] | uM |  |
| C[S+]([O-])CCCCN=C=S (centres unmarked) [Sulforaphane (SFN), Sulforaphane] | uM |  |
| O=C(CCCCCCCC(=O)NO)NO [ABHA (azeleic bishydroxamic acid), azeleic bishydroxamic acid] | uM |  |
| CC(=O)Nc1ccc(C(=O)Nc2ccccc2N)cc1 [CI-994(N-acetyl dinaline), N-acetyl dinaline] | nM |  |
| CC(/C=C/C(=O)NO)=C\[C@@H](C)C(=O)c1ccc(N(C)C)cc1 [TSA, Trichostatin A] | nM | ES cell-like colony formation [1, 5]: multiple colonies displaying morphologies consistent with embryonic stem cells or reprogrammed cells were observed; ES cell-like colony formation [1, 6]: ES cell-like colony formation was observed; Increase in colony formation vs no pretreatment ([1]; 5 days pre-treatment, then OSKM lentivirus): two-fold; Number of ES cell-like colonies ([1]; First Experiment): 24; Number of ES cell-like colonies ([1]; Second Experiment): 21; Somatic cell reprogramming efficiency (number of formed colonies) ([1]; pre-treatment prior to four-factor transfection, TSA 1 μM): increased; Sox-2 and Oct4 expression in ES cell-like colonies [2]: showed Sox-2 and Oct4 expression |
| O=C(/C=C/c1ccc(CNC(=O)c2ccc(N3CCCC3)cc2)cc1)NO [SK-7068] | nM |  |
| O=C(CCCCCCC(=O)NO)NO [SBHA (suberic bishydroxamate), suberic bishydroxamate] | uM |  |
| Nc1ccccc1NC(=O)c1ccc(CNC(=O)OCc2cccnc2)cc1 [MS-275 (same as MS-27-275)] | nM |  |
| O=C(/C=C/c1cccc(C(=O)NO)c1)NO [m-Carboxycinnamic acid bishydroxamic acid] | uM |  |
| CCCC(=O)OCOC(=O)C(C)(C)C [AN-9, Pivaloyloxymethyl butyrate, Pivaloyloxymethyl butyrate] | uM |  |
| CCCC(CCC)C(=O)O [VPA, Valproic acid] | mM | Teratogenicity (mouse embryos): teratogenic in the majority of mouse embryos; Efficiency (Human fibroblasts; 2 iPS factors (OS) + VPA): 0.001%; Efficiency (Human fibroblasts; 3 iPS factors (OSK) + VPA): 1%; DNMT1 gene expression (BJFs (ATCC); BJFs, 500 nM VPA, 7 days, vs control (MC) cells, P<0.005): significantly up regulated; HDAC1 gene expression (BJFs (ATCC); BJFs, 500 nM VPA, 7 days, vs control (MC) cells, P<0.01): significantly up regulated; SIRT4 gene expression (BJFs (ATCC); BJFs, 500 nM VPA, 7 days, vs control (MC) cells, P<0.05): significantly up regulated; Compensatory expression of HDACs (HDAC9, HDAC5, HDAC11, SIRT4, SIRT5) (BJFs (ATCC); treatment of cells with VPA (FIG. 4C)): induced; Birth defects (neural tube closure defects and other malformations) [3]: may induce birth defects; ES cell-like colony formation [1, 5]: Colonies displaying characteristics of embryonic stem cells or reprogrammed cells were observed; ES cell-like colony formation [1, 6]: Colonies displaying characteristics of embryonic stem cells or reprogrammed cells were observed; Efficiency ([4]; 3 iPS factors (OSK) + VPA): 0.002%; Efficiency ([4]; 4 iPS factors (OSKM) + VPA): 0.006% |
| Oxamflatin | uM |  |
| O=C(/C=C/c1cccc(S(=O)(=O)Nc2ccccc2)c1)NO [PDX-101] | uM |  |
| Nc1ccccc1NC(=O)c1ccc(CNc2nccc(-c3cccnc3)n2)cc1 [MGCD0103] | nM |  |
| C[S+]([O-])CCCCNC(=S)SC[C@H](N)C(=O)O (some centres unmarked) [SFN-cysteine (SFN-Cys), SFN-cysteine] | uM |  |
| Suberoylanilide hydroxamic acid | uM |  |
| CCCC(=O)[O-].[Na+] [Butyrate/Sodium Butyrate, Sodium Butyrate] | mM |  |
| CCN(CC)Cc1ccc2cc(COC(=O)Nc3ccc(C(=O)NO)cc3)ccc2c1 [ITF2357] | nM |  |
| S=C=NCCCCc1ccccc1 [Phenylbutyl isothiocyanate] | uM |  |
| O=C(CCCCCCC(=O)Nc1cccnc1)NO [Pyroxamide] | uM |  |
